Test results published in article PMC11350758, “Development of Xanthoangelol-Derived Compounds with Membrane-Disrupting Effects against Gram-Positive Bacteria” (Antibiotics, 2024).
Like-named read-outs stand apart in the source and are kept apart here.

Key:
[1] = test system: S. aureus ATCC43300 biofilm formation
Experimental: Bacterial biofilms created by the aggregation of bacteria is considered as one of the main reasons for the development of drug resistance. […] Subsequently, we further assessed the efficiency of 9h to eradicate the preformed biofilm. Matured S. aureus biofilm (grown for 24 h) was treated with compound 9h, and the rate of biofilm disruption was then assessed by the crystal violet staining assay.
Biofilm inhibition assay: S. aureus ATCC43300 was cultured (37 °C, 200 rpm) in MHB broth for 5 h and diluted to 1 × 10^6 CFU/mL. […] The planktonic supernatant cells were discarded and washed with PBS three times. Then, methanol (150 µL) was added to each well for 30 min. After discarding methanol, 0.1% crystal violet solution (150 µL) was added, and biofilms were stained for 15 min. Next, crystal violet solution was removed and washed with PBS three times. Finally, ethanol (150 µL) was pipetted into the wells, and the OD values were measured at 575 nm. The biofilm inhibition (%) = (ODcompound − ODblank)/(ODpositive control − ODblank) × 100%.

S. aureus ATCC43300 [2] = assay: DNA leakage study; format: cell-based; conditions: 16 μg/mL
Experimental: The destruction of bacterial cell membranes usually causes the leakage of macromolecules, including DNA and proteins. To investigate the effect of the compound 9h on the leakage of cytoplasmic contents, we performed DNA and protein leakage assays against S. aureus ATCC43300. The degree of damage to the bacterial cell membrane could be reflected by the concentrations of DNA and protein. The non-membrane-targeted antibiotic ciprofloxacin, membrane-targeted peptide melittin, and PBS were used as controls. […] A similar result were also observed in the leakage of protein with S. aureus (Figure 8C).
Mid-log S. aureus ATCC43300 was collected and resuspended in PBS (1.0 × 10^8 CFU/mL). […] The concentration of the protein was determined according to the method of the BCA assay kit (Thermo Fisher Scientific, Waltham, MA, USA), and the concentration of DNA in the supernatant was tested by a micro-spectrophotometer. All biological experiments were repeated three times.

S. aureus ATCC43300 [3] = assay: Cytoplasmic membrane depolarization assay, DiSC3(5); format: cell-based; conditions: 16 μg/mL, at 20 min
Experimental: To explore the antibacterial mechanism of compound 9h, a cytoplasmic membrane depolarization assay was performed against S. aureus ATCC43300 using 3,3′-dipropylthiadicarbocyanine iodide (DiSC3(5)) assay. In general, DiSC3(5) could penetrate the intact cell membranes and was quenched when accumulated inside the bacterial cells. Once the cell membrane was destroyed, DiSC3(5) was released from the cell membrane, leading to a significant increase in fluorescence intensity. […] Moreover, the fluorescence intensity in S. aureus increased in a dose-dependent manner with increasing concentrations of 9h.
Mid-log S. aureus ATCC43300 was collected and then washed with PBS three times. Bacterial suspension (1.0 × 10^8 CFU/mL, 150 μL) was added to a black 96-well plate, and then fluorescent dye DiSC3(5) (10 μM, 50 μL) was pipetted into each well of plates and preincubated in the dark for 30 min. After the incubation, the fluorescence intensity was measured every minute for 6 min using a microplate reader (SpectraMax i3x, Molecular Devices, Sunnyvale, CA, USA) (λex/λem = 622 nm/670 nm). […] All biological experiments were repeated three times.

CC(=O)c1c(OCCCNCCCN2CCN(C)CC2)c2c(c3c1OC(C)(CCC=C(C)C)C=C3)OC(C)(CCC=C(C)C)C=C2 (stereo not shown) [Compound 9h, 1-(2,8-Dimethyl-2,8-bis(4-methylpent-3-en-1-yl)-5-(3-((3-(4-methylpiperazin-1-yl)propyl)amino)propoxy)-2H,8H-pyrano [2,3-f]chromen-6-yl)ethan-1-one]
inhibition of S. aureus biofilm formation ([1]; 1× MIC (2 μg/mL)): 8.65% | inhibition of S. aureus biofilm formation ([1]; 2× MIC): 10.87% | concentration of DNA excreted vs blank control (S. aureus ATCC43300 [2]): approximately 5.5 fold | increase of DiSC3(5) fluorescence intensity vs blank control (S. aureus ATCC43300 [3]): about 5 fold
